# Assay results as given in patent US12421228B2 (Mirati Therapeutics, Inc., priority 2019, dated 2025).
# pIC50: −log10 of the molar value.
# Assays:
# [1] = biological target: purified human, His-tagged PRC2 complex (Homo sapiens (Human), UniProt O75530); assay: Hot Spot HMT assay, inhibition of PRC2 enzymatic activity; format: biochemical; conditions: 10 nM PRC2 complex, 0.05 mg/ml core histone H3, 1 μM 3H-SAM, 1 hr at 30° C.; read-out: IC50, Inhibition of PRC2-mediated Enzymatic Activity
# Protocol: Ten-point dose-response curves for compounds of the present invention were determined using a Hot Spot HMT assay (Reaction Biology Corp; see Horiuchi et al., Assay Drug Dev Technol. (2013) 4: 227-236 doi: 10.1089/adt.2012.480). The assay uses purified human, His-tagged PRC2 complex, including N-terminal His-tagged EZH2 enzyme, N-terminal Flag-tagged embryonic ectoderm development protein (EED), N-terminal His-tagged suppressor of zeste 12 (SUZ12), N-terminal His-tagged AEBP2, and N-terminal His-tagged RbAp48. In this assay, the transfer of the tritiated methyl group from radiolabeled S-adenosyl methionine (SAM) to purified core histone protein by EZH2 is quantitated after filtration to determine the activity of the core PRC2 complex in the presence and absence of compound.
# Briefly, compounds of the present invention were solubilized in DMSO and a series of 10, three-fold serial dilutions were made for each compound in 15% DMSO. The initial starting concentration for the serial dilutions of each compound was 1.0 μM. Control samples lacking compound, EZH2 enzyme or various reaction components also were prepared and processed in parallel with compound test samples. SAH (S-(5-adenosyl)-L-homocysteine) was used as a positive control for assay validation.
# An aliquot of each serial dilution of test compound was added to deep 384 well plate using Acoustic Technology instrument (Echo 550, LabCyte) containing reaction buffer (50 mM Tris-HCl (pH 8)), 0.01% Brij35, 1 mM EDTA, 1 mM DTT, 1 mM PMSF and 1% DMSO), 10 nM purified PRC2 complex and 0.05 mg/ml core histone H3 in a 5 μl volume. The reaction was mixed gently and then pre-incubated for 20 min at 30° C. The enzymatic reaction was initiated by adding 1 μM S-Adenosyl-L-[methyl-^3H]methionine and incubated for 1 hr at 30° C. After 1 hr, the reaction product was detected using a filter binding method and the amount of tritiated H3 core histone was quantitated using a scintillation counter. The IC50 value for each compound was determined from each 10-point dose-response curve using GraphPad Prism software and the results for compounds of present invention, including compounds of Formula (I) and Formula (II) are shown in Table 6. Key: A=<100 nM; B=>100 nM−<250 nM; and C=>250 nM.
# [2] = tested on: PRC2-mediated histone H3 methylation in Pfeiffer cells (EZH2 A677G); assay: Tri-Methyl Histone H3 (Lys 27) sandwich ELISA in Pfeiffer cells; format: cell-based; conditions: Homo sapiens, 96 hours incubation, H3K27me3 ELISA, read-out: IC50 (nM), Inhibition of EZH2-mediated Histone H3 Trimethylation
# Excerpt: The Pfeiffer cell line was established from a […] from a patient having metastatic diffuse large B-cell lymphoma (DLBCL). This cell line expresses a mutant form of the EZH2 enzyme (A677G) that results in enhanced EZH2 activity leading to increased methylation of histone H3 Lys27. Increased trimethylation of histone H3 Lys27 is believed to be implicated in tumorgenesis and poor clinical prognosis in lymphomas (McCabe et al., (2012) Nature 492:108-112).
# Inhibition of PRC2-mediated histone H3 methylation by compounds of Formula (I) was measured by ELISA using a Tri-Methyl Histone H3 (Lys 27) Sandwich ELISA Kit (Cell Signaling Tech #7866C) in accordance with the manufacturer's instructions. Briefly, Pfeiffer cells were cultured in RPMI medium supplemented with 10% fetal bovine serum and 1% penicillin and 1% streptomycin in 96 well culture plates at 37° C. to a density of 8000 cells/90 μl/well and the cells were harvested. A series of 3-fold serial dilutions of each test compound of Formula (I) were prepared in RPMI medium and added to the cells at final concentrations ranging from […] to 0.15 nM. The plates were incubated at 37° C. for 96 hours.
# After incubation, the cells were pelleted by centrifugation in a pre-cooled 4° C. rotor at 1,100 rpm for 10 min and the supernatant was removed by aspiration. The cell pellet was resuspended in 55 μl of Lysis Buffer (0.4M HCl) and incubated on ice with periodic shaking for 30 minutes. The lysed cells were subjected to centrifugation at 4,200 rpm for 10 min at 4° C. and the supernatant containing acid-soluble proteins was collected and the remainder discarded. The acid-soluble proteins were brought to a neutral pH by the addition of 20 μl of Neutralization Buffer (1 M Sodium phosphate, dibasic (pH 12.5), 2.5 mM DTT and 1 mM PMSF) and the neutralized lysates were analyzed by ELISA.
# A 65 μl aliquot of each cell lysate was added to a well of a microwell strip, the microwells were sealed using tape and incubated either at 37° C. for two hours or at 4° C. overnight. After incubation, the tape was removed at the microwells were washed four times using 200 μl of 1× Wash Buffer. To each washed microwell, a 100 μl aliquot of an anti-trimethyl histone H3 Lys27 Detection Antibody solution was added and the microwells were incubated at 37° C. for one hour. The Detection Antibody solution was removed by aspiration and the wells were washed four times each using 200 μl of 1× Wash Buffer.
# A 100 μl aliquot of an HRP-linked secondary antibody was added to each well, the wells were sealed with tape and incubated at 37° C. for 30 min. The HRP-linked secondary antibody solution was removed by aspiration and the wells were washed four times using 200 μl of 1× Wash Buffer. A 100 μl aliquot of a TMB substrate was added to each well, the wells were sealed with tape and incubated at 37° C. for 10 min or 25° C. for 30 min. The reaction was stopped by the addition of 100 μl aliquot of a STOP solution and the plate was shaken briefly. The degree of histone H3 trimethylation was determined using a spectrophotometric readout by measuring the absorbance at 450 nm and then calculating the amount of trimethylated histone H3. A=≤100 nM; B=>100 nM−≤500 nM; C=>500 nM and N.D.=not determined.
# [3] = tested on: Karpas 422 cells (EZH2 Y641N); assay: Karpas 422 cell viability (Cell Titre Glo); format: cell-based; conditions: Homo sapiens, CTG viability, Day 4, Day 7 or Day 11 (time point not given), read-out: IC50 (nM), Inhibiting Proliferation of Cells Expressing an Activating Mutant Form of EZH2
# Protocol: Karpas 422 cell line is a human B cell non-Hodgkin's lymphoma cell line established from a patient having DLBCL. This EZH2 heterozygotic cell line expresses a mutant form of EZH2 enzyme (Y641N) that increases histone H3 methylation and this mutation has been implicated in the tumorgenesis of lymphomas, such as DLBCL.
# Karpas 422 cells (PHE cat no., 06101702) were cultured in RPMI medium supplemented with 20% fetal bovine serum and 1% penicillin/1% streptomycin and plated at a density of 1000 cells/90 μl/well in 96 well white assay plates. A dose response curve for compounds of the present invention was determined by adding a 10 μl aliquot of stock solutions of varying concentrations of compounds to the same medium in each well, over a concentration range of 10 μM using 3-fold dilutions to a final concentration of 1.5 nM. The plates were incubated at 37° C. for predetermined time periods, Day 4, Day 7, or Day 11, and the viability of the cells was measured using a CTG assay kit (Cell Titre Glo; Promega cat. no G7573) on Day 4 and Day 7 in accordance with the manufacturer's instructions.
# For the viability assay for the Day 11 plates, the plates were subjected to centrifugation at 1100 rpm for five minutes on Day 7 and the supernatant was removed by aspiration. The cells were resuspended in 90 μl aliquot of the appropriate growth medium lacking the compound followed by addition of 10 μl of a 10× stock of the same compound at the same concentration. The viability of the Day 11 cells was measured using the CTG assay kit described above in accordance with the manufacturer's instructions. The IC50 values for each compound at each predetermined time point were calculated using Graph pad PRISM software and the results are shown in Table 8. A=≤250 nM; B=[…]−≤500 nM; C=>500 nM and N.D.=not determined.
# Chain of purified human, His-tagged PRC2 complex (Q15910 whole entry): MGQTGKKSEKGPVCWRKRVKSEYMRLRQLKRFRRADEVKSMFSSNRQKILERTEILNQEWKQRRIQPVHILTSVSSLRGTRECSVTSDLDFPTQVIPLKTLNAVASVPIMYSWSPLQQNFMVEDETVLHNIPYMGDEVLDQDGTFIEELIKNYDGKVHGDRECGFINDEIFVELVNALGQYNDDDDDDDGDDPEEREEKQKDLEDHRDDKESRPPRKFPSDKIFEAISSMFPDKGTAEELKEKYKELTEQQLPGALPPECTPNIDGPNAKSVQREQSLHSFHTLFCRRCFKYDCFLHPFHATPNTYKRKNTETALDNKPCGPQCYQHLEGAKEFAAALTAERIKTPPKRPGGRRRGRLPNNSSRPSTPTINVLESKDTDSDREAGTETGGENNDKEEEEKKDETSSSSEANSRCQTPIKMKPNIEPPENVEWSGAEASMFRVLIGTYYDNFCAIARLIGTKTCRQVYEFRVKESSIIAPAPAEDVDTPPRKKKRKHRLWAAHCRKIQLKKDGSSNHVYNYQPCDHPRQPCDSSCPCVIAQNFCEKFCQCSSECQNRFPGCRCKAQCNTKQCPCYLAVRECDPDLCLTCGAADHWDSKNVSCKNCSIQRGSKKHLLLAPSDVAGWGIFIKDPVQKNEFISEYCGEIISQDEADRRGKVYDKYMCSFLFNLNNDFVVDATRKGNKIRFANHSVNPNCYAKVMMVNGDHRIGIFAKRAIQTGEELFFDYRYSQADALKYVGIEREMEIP
# Chain of purified human, His-tagged PRC2 complex (O75530 whole entry): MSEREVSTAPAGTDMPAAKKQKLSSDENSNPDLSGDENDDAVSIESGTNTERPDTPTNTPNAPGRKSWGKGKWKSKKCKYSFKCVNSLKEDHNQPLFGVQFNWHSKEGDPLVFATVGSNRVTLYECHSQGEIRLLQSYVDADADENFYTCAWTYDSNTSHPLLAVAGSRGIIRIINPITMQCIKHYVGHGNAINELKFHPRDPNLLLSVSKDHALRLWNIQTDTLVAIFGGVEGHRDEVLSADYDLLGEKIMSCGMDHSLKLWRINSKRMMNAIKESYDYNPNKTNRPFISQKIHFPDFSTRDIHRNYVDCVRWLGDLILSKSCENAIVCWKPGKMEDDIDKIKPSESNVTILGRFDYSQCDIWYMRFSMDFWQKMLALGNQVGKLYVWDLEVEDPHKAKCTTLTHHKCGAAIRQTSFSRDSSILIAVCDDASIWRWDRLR
# Chain of purified human, His-tagged PRC2 complex (Q15022 whole entry partner): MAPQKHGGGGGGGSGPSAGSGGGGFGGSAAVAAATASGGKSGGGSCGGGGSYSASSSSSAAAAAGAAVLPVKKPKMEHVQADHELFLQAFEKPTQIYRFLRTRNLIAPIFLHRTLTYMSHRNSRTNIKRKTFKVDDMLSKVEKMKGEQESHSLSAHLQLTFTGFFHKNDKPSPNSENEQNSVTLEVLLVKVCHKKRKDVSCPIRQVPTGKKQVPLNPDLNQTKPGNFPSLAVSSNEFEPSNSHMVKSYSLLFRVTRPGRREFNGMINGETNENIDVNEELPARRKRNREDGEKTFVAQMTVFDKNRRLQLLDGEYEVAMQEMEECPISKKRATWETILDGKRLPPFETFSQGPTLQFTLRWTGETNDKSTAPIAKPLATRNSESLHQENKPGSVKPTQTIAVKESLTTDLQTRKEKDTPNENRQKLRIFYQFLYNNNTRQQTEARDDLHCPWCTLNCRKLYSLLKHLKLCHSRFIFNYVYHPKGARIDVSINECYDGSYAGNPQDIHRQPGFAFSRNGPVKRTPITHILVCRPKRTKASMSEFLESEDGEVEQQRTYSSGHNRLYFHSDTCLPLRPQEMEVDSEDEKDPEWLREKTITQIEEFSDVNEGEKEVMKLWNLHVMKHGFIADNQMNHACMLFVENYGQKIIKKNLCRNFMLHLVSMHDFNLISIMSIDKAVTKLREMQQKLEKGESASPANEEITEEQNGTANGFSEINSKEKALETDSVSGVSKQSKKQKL
# Chain of purified human, His-tagged PRC2 complex (Q6ZN18 whole entry partner): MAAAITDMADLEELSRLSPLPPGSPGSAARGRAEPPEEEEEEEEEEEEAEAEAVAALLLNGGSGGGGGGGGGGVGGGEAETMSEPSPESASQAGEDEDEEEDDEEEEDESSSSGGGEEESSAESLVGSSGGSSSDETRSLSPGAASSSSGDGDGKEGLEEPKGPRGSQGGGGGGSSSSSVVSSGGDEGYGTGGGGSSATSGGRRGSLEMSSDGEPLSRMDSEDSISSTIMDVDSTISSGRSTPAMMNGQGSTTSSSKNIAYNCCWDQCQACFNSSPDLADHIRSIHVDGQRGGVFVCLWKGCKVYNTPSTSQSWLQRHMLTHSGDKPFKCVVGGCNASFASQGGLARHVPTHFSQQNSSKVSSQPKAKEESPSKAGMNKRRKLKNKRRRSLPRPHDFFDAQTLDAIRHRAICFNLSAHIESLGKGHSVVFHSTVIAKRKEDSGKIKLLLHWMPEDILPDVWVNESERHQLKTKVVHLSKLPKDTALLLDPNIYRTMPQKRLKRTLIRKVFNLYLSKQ
# Chain of purified human, His-tagged PRC2 complex (Q09028 whole entry partner): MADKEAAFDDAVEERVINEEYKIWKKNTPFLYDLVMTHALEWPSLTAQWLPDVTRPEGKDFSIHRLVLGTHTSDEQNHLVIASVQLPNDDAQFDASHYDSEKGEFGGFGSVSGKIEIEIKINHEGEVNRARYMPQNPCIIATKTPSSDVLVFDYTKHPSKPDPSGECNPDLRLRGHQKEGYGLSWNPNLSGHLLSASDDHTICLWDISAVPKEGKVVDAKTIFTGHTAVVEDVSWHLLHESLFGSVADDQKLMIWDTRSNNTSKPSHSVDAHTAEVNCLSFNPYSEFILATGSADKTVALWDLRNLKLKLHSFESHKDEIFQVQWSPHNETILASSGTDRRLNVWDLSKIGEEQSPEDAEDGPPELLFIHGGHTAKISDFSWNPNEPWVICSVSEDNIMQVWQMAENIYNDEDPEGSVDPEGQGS
SMILES,pIC50 [1],IC50 [2],IC50 [3]
"COc1ncc2c(NCc3c(F)ccc4c3CCO4)ncc(-c3cc(C)nn3C)c2n1 [Example 28, 8-(1,3-dimethyl-1H-pyrazol-5-yl)-N-((5-fluoro-2,3-dihydrobenzofuran-4-yl)methyl)-2-methoxypyrido[4,3-d]pyrimidin-5-amine]",> 7.00,100 to 500 nM,≤ 250 nM
Cc1cc(CN(C)C)ccc1-c1cnc(NCc2c(F)ccc3c2CCO3)c2c[nH]c(=O)cc12 [Example 41],6.60 to 7.00,100 to 500 nM,250 to 500 nM
CN(C)Cc1ccc(-c2cnc(NCc3cccc4c3CCO4)c3cncnc23)cc1 [Example 25],< 6.60,100 to 500 nM,≤ 250 nM
"COc1cc2c(-c3cc(C)nn3C)cnc(NCc3c(F)ccc4c3CCO4)c2cn1 [Example 34, 4-(1,3-dimethyl-1H-pyrazol-5-yl)-N-((5-fluoro-2,3-dihydrobenzofuran-4-yl)methyl)-6-methoxy-2,7-naphthyridin-1-amine]",6.60 to 7.00,> 500 nM,> 500 nM
CN(C)Cc1ccc(-c2cnc(NCc3c(F)ccc4c3CCO4)c3cncnc23)cc1 [Example 23],> 7.00,100 to 500 nM,≤ 250 nM
Cc1cc(S(C)(=O)=O)ccc1-c1cnc(NCc2c(F)ccc3c2CCO3)c2cnncc12 [Example 3],> 7.00,≤ 100 nM,≤ 250 nM
"CNCc1ccc(-c2cnc(NCc3c(F)ccc4c3CCO4)c3cnncc23)cc1 [Example 21, N-((5-fluoro-2,3-dihydrobenzofuran-4-yl)methyl)-8-(4-((methylamino)methyl)phenyl)pyrido[3,4-d]pyridazin-5-amine]",6.60 to 7.00,100 to 500 nM,≤ 250 nM
O=c1cc2c(-c3ccc(CN4CCCC4)cc3)cnc(NCc3c(F)ccc4c3CCO4)c2c[nH]1 [Example 37],6.60 to 7.00,100 to 500 nM,≤ 250 nM
Cc1ncccc1-c1cnc(NCc2c(F)ccc3c2CCO3)c2c[nH]c(=O)cc12 [Example 36],< 6.60,100 to 500 nM,≤ 250 nM
"COc1nccc2c(NCc3c(F)ccc4c3CCO4)ncc(-c3cc(C)nn3C)c12 [Example 54, 4-(1,3-dimethyl-1H-pyrazol-5-yl)-N-((5-fluoro-2,3-dihydrobenzofuran-4-yl)methyl)-5-methoxy-2,6-naphthyridin-1-amine]",< 6.60,> 500 nM,250 to 500 nM
CN(C)S(=O)(=O)c1ccc(-c2cnc(NCc3c(F)ccc4c3CCO4)c3cnncc23)cn1 [Example 10],> 7.00,≤ 100 nM,≤ 250 nM
"CCOc1cc2c(-c3cc(C)nn3C)cnc(NCc3c(F)ccc4c3CCO4)c2cn1 [Example 42, 4-(1,3-dimethyl-1H-pyrazol-5-yl)-6-ethoxy-N-((5-fluoro-2,3-dihydrobenzofuran-4-yl)methyl)-2,7-naphthyridin-1-amine]",6.60 to 7.00,,

# Now from value to compound:
pIC50 [1],IC50 [2],IC50 [3],SMILES
< 6.60,> 500 nM,> 500 nM,"Cc1cc(-c2cnc(NCc3c(F)ccc4c3CCO4)c3cnc(N)cc23)n(C)n1 [Example 50, 4-(1,3-dimethyl-1H-pyrazol-5-yl)-N^1-((5-fluoro-2,3-dihydrobenzofuran-4-yl)methyl)-2,7-naphthyridine-1,6-diamine]"
> 7.00,≤ 100 nM,≤ 250 nM,Cc1cc(CN(C)C)ccc1-c1cnc(NCc2c(F)ccc3c2CCO3)c2cnncc12 [Example 6]
6.60 to 7.00,> 500 nM,> 500 nM,"Cn1nc(C#N)cc1-c1cnc(NCc2c(F)ccc3c2CCO3)c2cnccc12 [Example 33, 5-[1-[(5-fluoro-2,3-dihydrobenzofuran-4-yl)methylamino]-2,7-naphthyridin-4-yl]-1-methyl-pyrazole-3-carbonitrile]"
> 7.00,≤ 100 nM,≤ 250 nM,Cc1cc(-c2cnc(NCc3c(F)ccc4c3CCO4)c3cnncc23)n(C)n1 [Example 13]
6.60 to 7.00,> 500 nM,> 500 nM,"Cc1cc(-c2cnc(NCc3c(F)ccc4c3CCO4)c3cnc(N(C)C)cc23)n(C)n1 [Example 49, 4-(1,3-dimethyl-1H-pyrazol-5-yl)-N^1-((5-fluoro-2,3-dihydrobenzofuran-4-yl)methyl)-N^6,N^6-dimethyl-2,7-naphthyridine-1,6-diamine]"
< 6.60,100 to 500 nM,> 500 nM,"Cc1cc(-c2cnc(NCc3c(F)ccc4c3CCO4)c3ccncc23)n(C)n1 [Example 56, 4-(1,3-dimethyl-1H-pyrazol-5-yl)-N-((5-fluoro-2,3-dihydrobenzofuran-4-yl)methyl)-2,6-naphthyridin-1-amine]"
> 7.00,≤ 100 nM,≤ 250 nM,CN(C)Cc1ccc(-c2cnc(NCc3c(F)ccc4c3CCO4)c3cnncc23)cc1F [Example 14]
